Measured values published in a melting point compilation (Tetko et al.; mined from patent text by program, amines drawn as free bases though some values may be those of a salt).

SMILES | melting point [°C]
COC(=O)c1cc(OC)c(OC)c2c1C=CCO2 | 88.5 to 90
COC(=O)c1ccccc1NC(=O)CCl | 97 to 99
CCN(C)C(=O)c1cnn(-c2ccc(Cl)cc2)c1-c1ccc(OC)c(OC)c1 | 110
ClCc1coc(-c2ccoc2)n1 | 70 to 71
OC(CN1CCCC1)c1cc(C(F)(F)F)nc2c(C(F)(F)F)cccc12 (centres undefined) | 92 to 94
OC(CNC1CC1)COc1ccc(-c2nc(C(F)(F)F)c[nH]2)cc1 (centres undefined) | 169 to 171
CCn1cc(C(=O)O)c(=O)cc1-c1c(Cl)cccc1Cl | 200 to 201
CCCCn1c(CO)nc2c(N)nc3ccccc3c21 | 223 to 225
CCN(CC)Cc1nc(-c2ncn3c2CN(C)C(=O)c2ccccc2-3)no1 | 153 to 154
N#CCNC(=O)C(=O)Oc1ccc([N+](=O)[O-])cc1 | 123 to 124
COc1cc(N2CCOCC2)ccc1Nc1nc(Nc2ccc3c(c2)CCCC(=O)N3C(C)C)ncc1Cl | 153 to 154
COC(=O)C[C@H](O)CC(=O)C=Cc1c(-c2ccc(F)cc2)c(-c2ccc(F)cc2)c(C(=O)NCc2cccc(OC)c2)n1C(C)C | 104 to 116
Cc1scc2c1N(C(=O)NCCN1CCC(CCCCN3CCCCC3)CC1)c1ccccc1NC2=O | 186 to 187
O=C(CC1CCCC1)c1ccc(Cn2ccc3ncnc-3c2)cc1 | 153 to 156
CSc1ncncc1C1c2cc(NS(=O)(=O)c3ccccc3)ccc2CC1(C)C (centres undefined) | 174 to 176
CN(C)C(=O)C(c1ccc(N)cc1)C1(O)CCCCC1 (centres undefined) | 169 to 170
NC(=O)Cc1ccc(OCC(O)CN2CCCC(Cn3c(=O)[nH]c4cc(Cl)c(Cl)cc43)C2)cc1 (centres undefined) | 148
CCCN1C(=O)CN=C(c2cccc(C(F)(F)F)c2)c2cc(OC)c(OC)cc21 | 135 to 137
O=C(NCCSCc1ccccc1)c1c(Cl)cccc1Cl | 96 to 97
N#Cc1cnc2sc(-c3ccccc3)cc2c1Nc1cccc2cc[nH]c12 | > 245
CN(CC(O)[C@H](Cc1ccccc1)NC(=O)c1ccccc1)C(=O)N1CCC[C@H]1C(=O)O (some centres undefined) | 108 to 117
Cc1ccc(S(=O)(=O)n2c(I)cc3c(Br)ccnc32)cc1 | 140 to 143
CC(=O)COc1ccc(Cl)cc1C(=O)O | 90 to 91
O=C(O)c1ccc(Cl)c2c1NCCS2 | 220

SMILES | melting point [°C]
O=C(O)c1cc(NCc2ccccc2)c(-c2ccccc2)c([N+](=O)[O-])c1 | 188 to 189
COC(=O)C(O)Cc1ccc(O)cc1 (centres undefined) | 42 to 43
O=C1C2=C(NC3(C=N2)SCCS3)c2ccccc21 | 284 to 290
CC(C#Cc1cccc(Oc2nccs2)c1)N(O)C(N)=O (centres undefined) | 118 to 119
COC(=O)[C@H](CCCCNC(=O)c1ccc(C(=O)c2ccccc2)cc1)n1c2ccccc2c2ccccc21 | 65
COC(=O)c1ccc(NC(=O)c2c(-c3ccccc3)c(-c3ccc(F)cc3)n(CC[C@@H]3C[C@H](CC(=O)OC(C)(C)C)OC(C)(C)O3)c2C(C)C)cc1 | 159 to 160
CCCCN(CC)CC(=O)N1c2ccccc2NC(=O)c2cncnc21 | 151 to 152
Cc1onc(-c2ccccc2)c1C(=O)NC1C(=O)N2C1SCC(C)(Cl)C2C(=O)O (centres undefined) | 210
Cc1cc(C)c(CN2CCN(C)CC2)c(C)c1C=O | 90
CC(C)(CO)NS(=O)(=O)c1ccc(Cl)c(NC(=O)c2cnn3c(C(F)F)cc(-c4ccc(C(F)(F)F)cc4)nc23)c1 | 234
CC1=C(C#N)C(c2cccc([N+](=O)[O-])c2)C(c2nc(CCl)no2)=C(C)N1 (centres undefined) | 204 to 206
CNC(=O)C1CC(=O)c2nc(C)n(C)c2C1 (centres undefined) | 194 to 196
CCc1cc(C(=O)c2ccccc2Cl)c(-n2c(C)nnc2CNC(=O)/C=C/c2ccccc2N)s1 | 141 to 143
CCc1c(C(=O)c2cccc(Cl)c2Cl)c2cccc(Br)c2n1CCCN(C)S(C)(=O)=O | 111
CCn1cc(C(=O)O)c(=O)c2cc(F)c(N3CCNC(COc4ccccc4)C3)cc21 (centres undefined) | 198 to 200
CC(=O)N1CCC(n2c(=O)[nH]c3ccccc32)CC1 | 212 to 214
Cc1nnc2n1-c1ccc(C#CCC3C(=O)Nc4ccccc43)cc1C(c1ccccc1Cl)=NC2 (centres undefined) | 141 to 143
CCOC(=O)COc1ccc(C=CC(=O)O)cc1 | 154
O=[N+]([O-])Nc1ccnc(Cl)c1 | 163 to 164
CCCc1c(C(=O)C(C)C)c2ccc(C(=O)OC)cc2n1Cc1ccccc1C | 99 to 102
CC(=O)NCC1CN(c2ccc(N3CC4CCCN(C(=O)OCc5ccccc5)C4C3)c(F)c2)C(=O)O1 (centres undefined) | 74 to 76
CCOC(=O)c1c(NCC(=O)OCCCC(=O)c2ccccc2)c2c(Cl)cc(Cl)cc2n1C(=O)OC(C)(C)C | 129 to 130
Nc1ccc(S(=O)(=O)Nc2cc(N)nc(S)n2)cc1 | 232 to 234
CC(=O)OCC(=O)c1ccc(-c2ccccc2)cc1 | 109 to 110

Results, then the compound that gave them:

melting point [°C] | SMILES
129 to 130 | FC(F)(F)c1cc(-c2cc3ccccc3o2)c2cccc(C(F)(F)F)c2n1
147 to 148 | COc1ccc(N2CCN(c3c(C)c(C)c4c(c3C)C(c3ccc(-c5ccccc5)cc3)C(C)(C)O4)CC2)cc1 (centres undefined)
104 to 106 | Cc1cc(OCc2ccccc2)c(C)cc1OCCCC(C)(C)C(=O)O
97 to 100 | Cc1ccc(CCc2ccccc2)c(OCC[C@@H]2C[C@@H](O)CN2C)c1
184 to 186 | Cc1cc(C2=NCCO2)cc(C)c1O
109 to 110 | COc1c(C(F)(F)F)cc([N+](=O)[O-])c(NN(C)C)c1[N+](=O)[O-]
133 to 136 | Cn1nc(-c2c(Cl)cccc2Cl)nc1-c1cccnc1Cl
176 | CS(=O)(=O)C(=C1CN(C(c2ccccc2)c2ccccc2)C1)c1cc(F)ccc1F
142 to 143 | COc1ccc(-c2noc(CC(=O)O)c2-c2ccc(OC)cc2)cc1
65 to 67 | O=C(OCC(Cl)(Cl)Cl)N1C2CCC1CC(Sc1ccc(F)cc1)C2 (centres undefined)
209 to 212 | O=S1(=O)NC2CCCN2c2ccc(Oc3ccc(Cc4nnn[nH]4)cc3)cc21 (centres undefined)
192 to 195 | NC(=NCC(F)(F)F)Nc1ccnc(SCCN2C(=O)c3ccccc3C2=O)n1
104 to 106 | CCOC(=O)COc1ccc(C=NCCN=Cc2ccc(OCC(=O)OCC)cc2O)c(O)c1
163 to 164 | CC(C)(C)c1cc(NC(=O)NNC(=O)c2ccc([N+](=O)[O-])cc2)cc(C(C)(C)C)c1O
219 | O=C(NCCN1CCOCC1)Nc1nc2ccc(OCc3c(F)cccc3F)cc2s1
242 | Cn1nc(-c2cc3c(cc2F)NC(=O)CO3)c(Cl)c1C(F)(F)F
197 to 199 | N#CC(C#N)=C1Sc2nc3ccc(C(F)(F)F)cc3nc2S1
176 to 178 | COc1ccc(CN2CC(C(=O)O)CC2=O)cc1OC (centres undefined)
70 | O=C1c2ccccc2SC12CC2
163 to 165 | CCOC(=O)c1cc2c(OCC(O)CNC(C)C)cc(C)cc2[nH]1 (centres undefined)
213 | O=C(CC1CCOCC1)N[C@H]1CC[C@H](CCN2CCN(c3nccc4ccoc34)CC2)CC1
172 to 173 | CNC(=O)c1cccc(NC(=O)COc2ccccc2Cl)c1
225 to 227 | O=C(Nc1ccc(-n2nc(C(F)(F)F)cc2C(F)(F)F)cc1)Nc1ccc(Cl)cc1[N+](=O)[O-]
35 to 38 | CCOC(=O)Cc1cccc(NC=O)n1
170 to 171 | COc1ccc2c(=O)cc(-c3cc[nH]n3)oc2c1
193 to 194 | O=C(O)CCCc1ccc(NS(=O)(=O)c2ccc(Cl)c(Cl)c2)cn1

melting point [°C] | SMILES
190 to 191 | Cc1c(Cc2cccc(C(F)(F)F)c2)sc2c(-c3cccc(C(N)=O)c3)cccc12
118 | Brc1ccc(-n2ccc3cc(OCc4ccccc4)ccc32)cc1
65 | CCN(CC)c1ccc(-c2nc(-c3cc(OC)c(O)c(OC)c3)n(C(=O)NS(=O)(=O)c3ccc(C)cc3)c2-c2ccc(N(CC)CC)cc2)cc1
107 to 108 | c1ccc(CCc2nc3cccc4c3n2CCC4)cc1
246 to 249 | Cc1nc2c(N[C@@H]3c4ccccc4C[C@H]3O)cc(C(=O)O)cn2c1C (relative stereo)
81 to 82 | Cc1c(I)sc(I)c1Br
163 to 166 | COc1cc(C)nc(NC(=O)NS(=O)(=O)C2=CCCCC2)n1
> 65 | COc1ccc(Cn2ncc3c4c(cnc32)CN(C(=O)Nc2ccccc2)CC4)cc1
127 to 130 | CCCCNc1nc(C)c(C(=O)c2ccc(N)c(N)c2)s1
> 300 | O=C(O)c1cnc2c3cccc([N+](=O)[O-])c3ccn2c1=O
254 to 256 | CN1CCC(c2[nH]c(=O)c3ccccc3c2-c2ccc(Cl)cc2)CC1
124 to 126 | C=CCOc1ccc2c(C)cc(=O)oc2c1C(=O)C=Cc1cccnc1
96 to 97 | COc1ccc2c(c1)CCC(CNC(C)=O)C2 (centres undefined)
141 to 146 | O=C1CCC=C2N=CC=NC=C12
179 to 181 | COc1ccc2nc(-c3ccc(N)c(I)c3)sc2c1
154 to 158 | O=C(O)C1Oc2ccccc2C2(CC2)c2cccc(Cl)c2O1 (centres undefined)
197 to 198 | CN1CCc2nc3cc(Cl)ccc3c(Nc3ccccc3)c2C1
121 | CCOC(=O)N=c1ccc(C)cn1Cc1cccc(C(F)(F)F)c1
193 to 194 | CC(=O)NC(=O)c1cn(Cc2ccccc2)nc1OCc1ccc(OCc2nc(-c3ccco3)oc2C)cc1
210 to 212 | NS(=O)(=O)c1cc2c(cc1Cl)C(=O)N(Cc1cccnc1)C2=O
113 to 114 | CCOC(=O)C(=CN)C(=O)c1cc(F)c(Cl)c([N+](=O)[O-])c1Cl
> 300 | CCn1c(=O)c2[nH]c(/C=C/c3ccc(F)c(Br)c3)nc2n(CC)c1=O
115 to 117 | CCNC(=O)Cc1cccc([N+](=O)[O-])c1
123 to 124 | O=C(NC(=S)Nc1ccccc1-c1ccc(F)cc1)c1ccccc1
138 to 140 | CCN(c1ccc(Cl)cc1C#N)S(=O)(=O)c1ccc(C)cc1
